Laboratory results reported in paper PMC12314051, “Design, antiproliferative potency, and in silico studies of novel 5-methylfuran-3-yl)thio)-3-phenylquinazolin-4(3H)-one based derivatives as potential EGFR inhibitors” (Scientific Reports, 2025).
Where “and” joins values, the source holds several entries; their conditions need not be identical. Identical values can stand only once.

What was measured:
HepG-2 cells = assay: MTT cytotoxicity assay, HepG-2; format: cell-based; settings: Homo sapiens, HepG2; HepG-2, MTT assay; read-out: IC50 (mean ± SD)
Procedure: (§1) Following the published protocol[75]–[77], the cytotoxic effects of the newly synthesized quinazolinones 1–10 were assessed in vitro using the MTT test method on human liver HepG-2, breast MCF-7, colorectal HCT-116 cancer cell lines, and normal diploid cell line WI-38. There were further details in the supplemetary file.
(§2) The cell lines were obtained from Karolinska Center, Department of Oncology and Pathology, Karolinska Institute and Hospital, Stockholm, Sweden, as follows: human liver HepG-2, breast MCF-7, and colorectal HCT-116 cancer cell lines and human diploid cell line WI-38. Exponentially, cells were placed in 10^4 cells/ well for 24 h, and then fresh medium containing different concentrations of the tested sample. two-fold serial dilution of the tested sample was added using a multichannel pipette. Moreover, all cells were cultivated at 37 °C, 5% CO2 and 95% humidity. Also, incubation of control cells occurred at 37 °C. However, after incubation for 24 h different concentrations of the sample (100, 50, 25, 12.5, 6.25, 3.125, and 1.56 µM) were added, and continued the incubation for 48 h, then, add the crystal violet solution of 1% to each well for 0.5 h to examine viable cells. Rinse the wells using water until no stain. After that, add 30% glacial acetic acid to all wells with shaking plates on a Microplate reader (TECAN, Inc.) to measure the absorbance, using a test wavelength of 490 nm. Besides, compare the treated samples with the control cell. The cytotoxicity was estimated by IC50 in (μM), the concentration that inhibits 50% of growth of cancer cell.

HCT-116 cells = assay: MTT cytotoxicity assay, HCT-116; format: cell-based; settings: Homo sapiens; HCT-116, MTT assay; read-out: IC50 (mean ± SD)
Procedure: as §1, §2

MCF-7 cells [1] = assay: MTT cytotoxicity assay, MCF-7; format: cell-based; settings: Homo sapiens, MCF7; MCF-7, MTT assay; read-out: IC50 (mean ± SD)
Procedure: as §1, §2

WI-38 cells = assay: MTT cytotoxicity assay, normal WI-38; format: cell-based; settings: Homo sapiens; normal WI-38, MTT assay; read-out: IC50 (mean ± SD)
Procedure: . […]. Furthermore, the MTT assay was employed to examine the safety profiles of the cytotoxic activity against the normal human diploid cell line WI-38 (Table 1). […]. They could therefore be considered safe chemotherapeutic agents.
as §1, §2

[2] = system: HepG-2, HCT-116 and MCF-7 cell lines; assay: MTT cytotoxicity, all screened cancer cell lines together (SAR summary); format: cell-based, human; settings: HepG-2, HCT-116 and MCF-7 cell lines
Procedure: […]. In addition, replacement of acetyl group in 2 with pyrazoline moiety with free N-1 in 7 or bound to thiazole in 9, yielded weak activity.
as §1, §2

EGFR = target: T1, EGFR (Homo sapiens, UniProt P00533); assay: In vitro EGFR inhibition assay; format: biochemical
T1 construct: purchased Abcam
T1 sequence (P00533 25-1210): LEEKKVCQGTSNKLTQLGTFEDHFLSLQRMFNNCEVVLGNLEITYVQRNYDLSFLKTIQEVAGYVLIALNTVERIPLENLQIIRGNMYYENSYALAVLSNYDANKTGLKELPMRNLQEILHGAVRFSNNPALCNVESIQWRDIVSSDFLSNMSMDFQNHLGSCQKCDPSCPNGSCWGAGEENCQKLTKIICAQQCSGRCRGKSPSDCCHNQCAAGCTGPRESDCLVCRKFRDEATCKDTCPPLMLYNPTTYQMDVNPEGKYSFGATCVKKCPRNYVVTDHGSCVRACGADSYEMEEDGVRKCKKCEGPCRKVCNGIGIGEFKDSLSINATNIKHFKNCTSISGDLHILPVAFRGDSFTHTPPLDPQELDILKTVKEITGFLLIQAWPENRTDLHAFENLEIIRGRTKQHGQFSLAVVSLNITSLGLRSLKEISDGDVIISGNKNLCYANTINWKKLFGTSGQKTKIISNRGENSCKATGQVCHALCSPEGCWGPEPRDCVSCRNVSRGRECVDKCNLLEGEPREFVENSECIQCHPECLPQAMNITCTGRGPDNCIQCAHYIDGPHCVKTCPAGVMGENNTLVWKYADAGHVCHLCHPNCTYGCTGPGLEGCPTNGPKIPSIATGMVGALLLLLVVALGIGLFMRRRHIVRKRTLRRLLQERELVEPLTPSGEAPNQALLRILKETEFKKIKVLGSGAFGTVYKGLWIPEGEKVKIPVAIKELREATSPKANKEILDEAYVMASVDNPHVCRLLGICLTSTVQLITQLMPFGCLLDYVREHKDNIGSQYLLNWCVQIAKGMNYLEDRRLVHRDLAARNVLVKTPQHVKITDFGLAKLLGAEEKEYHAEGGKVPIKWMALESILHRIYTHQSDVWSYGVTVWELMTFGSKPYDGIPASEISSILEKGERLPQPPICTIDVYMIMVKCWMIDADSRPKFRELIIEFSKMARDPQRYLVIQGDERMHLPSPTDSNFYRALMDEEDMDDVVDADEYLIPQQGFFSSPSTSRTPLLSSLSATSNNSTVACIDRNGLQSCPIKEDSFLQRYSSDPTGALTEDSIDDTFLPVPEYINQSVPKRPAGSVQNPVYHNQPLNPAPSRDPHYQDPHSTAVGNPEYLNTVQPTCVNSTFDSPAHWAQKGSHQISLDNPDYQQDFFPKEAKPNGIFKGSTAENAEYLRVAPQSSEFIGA

VEGFR-2 = target: T2, VEGFR-2 (Homo sapiens, UniProt P35968); assay: In vitro VEGFR-2 inhibition assay (ELISA kit); format: biochemical; settings: read-out: IC50 (mean ± SD)
T2 construct: purchased Ray Biotech
T2 sequence (P35968 20-1356): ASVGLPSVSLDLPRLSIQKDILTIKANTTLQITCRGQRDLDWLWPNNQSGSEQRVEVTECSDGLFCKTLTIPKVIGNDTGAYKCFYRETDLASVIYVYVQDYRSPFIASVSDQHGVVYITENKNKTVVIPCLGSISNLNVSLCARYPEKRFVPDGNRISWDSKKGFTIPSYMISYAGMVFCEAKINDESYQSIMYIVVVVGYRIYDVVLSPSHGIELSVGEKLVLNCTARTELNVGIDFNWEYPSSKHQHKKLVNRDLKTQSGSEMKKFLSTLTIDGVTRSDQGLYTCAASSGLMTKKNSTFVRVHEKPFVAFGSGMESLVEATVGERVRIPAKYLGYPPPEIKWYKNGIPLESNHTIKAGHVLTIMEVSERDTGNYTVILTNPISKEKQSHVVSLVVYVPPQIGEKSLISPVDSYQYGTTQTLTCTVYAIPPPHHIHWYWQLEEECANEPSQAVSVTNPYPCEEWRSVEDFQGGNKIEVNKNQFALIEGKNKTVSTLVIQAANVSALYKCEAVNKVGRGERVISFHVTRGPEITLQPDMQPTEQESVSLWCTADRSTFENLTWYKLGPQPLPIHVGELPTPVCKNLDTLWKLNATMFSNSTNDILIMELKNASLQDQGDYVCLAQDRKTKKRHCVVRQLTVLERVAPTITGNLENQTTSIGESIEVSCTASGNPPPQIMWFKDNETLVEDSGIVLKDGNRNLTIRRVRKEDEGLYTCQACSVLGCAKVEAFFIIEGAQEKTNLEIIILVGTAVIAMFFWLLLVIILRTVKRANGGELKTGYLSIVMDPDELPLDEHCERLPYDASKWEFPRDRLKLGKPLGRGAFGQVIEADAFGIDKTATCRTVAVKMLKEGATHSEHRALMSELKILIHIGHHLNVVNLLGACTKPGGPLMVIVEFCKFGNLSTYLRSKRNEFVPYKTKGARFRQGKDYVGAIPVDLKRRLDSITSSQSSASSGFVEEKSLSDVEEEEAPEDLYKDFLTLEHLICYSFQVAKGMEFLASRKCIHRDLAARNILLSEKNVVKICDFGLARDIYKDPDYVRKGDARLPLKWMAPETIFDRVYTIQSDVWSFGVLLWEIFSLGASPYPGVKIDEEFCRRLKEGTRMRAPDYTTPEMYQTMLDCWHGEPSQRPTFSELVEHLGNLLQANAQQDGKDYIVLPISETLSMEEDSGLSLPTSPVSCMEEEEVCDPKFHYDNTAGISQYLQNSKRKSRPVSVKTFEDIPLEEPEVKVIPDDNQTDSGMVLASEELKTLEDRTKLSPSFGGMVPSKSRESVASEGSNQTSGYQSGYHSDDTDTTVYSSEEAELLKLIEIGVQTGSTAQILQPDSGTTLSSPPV
Procedure: Quinazolinone-based targets 1, 6b, 8a, and 10 were chosen for further evaluation of their in vitro inhibitory activity against EGFR and VEGFR-2 because of their exceptional cytotoxic outcomes, with the goal of clarifying their mode of action. […]. VEGFR-2 assay: the effect of the most promising cytotoxic compounds 1, 6b, 8a, and 10 was evaluated for their in vitro inhibitory activity against Human VEGFR-2 using ELISA kit according to manufacturer's instructions (Ray Biotech). This assay employs an antibody specific for human VEGFR-2 coated on a 96-well plate. Samples and standards were added to the wells and incubated over night at 4 °C with gentle shaking. The wells were washed and biotinylated antibody was added followed by incubation for one hour at room temperature. After washing away unbound biotinylated antibody, HRP conjugated streptavidin was pipetted to the wells and
incubated at room temperature for 45 min. The wells were then washed; TMB substrate solution was added and incubated for 30 min. The color developed was in proportion to the amount of VEGFR-2 bound. The Stop Solution was added and the intensity of the color was measured at 450 nm. Percent inhibition was calculated by the comparison of compounds treated to control incubations. […]

MCF-7 cells [3] = assay: Cell cycle analysis by flow cytometry (PI); format: cell-based, human; settings: MCF-7, 3.91 μM, 24 h
Procedure: (§3) The treated cells were subsequently analyzed using flow cytometry and annexin-V labeling (Fig. 4, 5, 6).
(§4) Using flow cytometry, the investigation of cell cycle analysis and apoptosis was described[79],[81]. After applying quinazolinone-furan-benzo[b][1,4]diazepine 6b to MCF-7 cells for 24 h, the cells were incubated at 37 °C. The supplemental file contained more information.
(§5) Cell cycle analysis and apoptosis study were carried out using ab139418–Propidium Iodide Flow Cytometry Kit for Cell Cycle Analysis. MCF-7 cells were seeded at 8×10^4 and incubated at 37°C in 5% CO2 overnight. After treatment with the tested compound 10 for 24 h, cell pellets were collected and centrifuged (300 g, 5 min). For cell cycle analysis, cell pellets were fixed with 70% ethanol on ice for 15 min and collected again. The pellets were incubated with propidium iodide (PI) staining solution at room temperature for 1 h and analyzed by a Gallios flow cytometer (Beckman Coulter, Brea, CA, USA). Apoptosis detection was carried out by FITC AnnexinV/PI commercial kit (Becton Dickenson, Franklin Lakes, NJ, USA) following the manufacturer protocol. The samples were analyzed by fluorescence-activated cell sorting (FACS) with a Gallios flow cytometer (Beckman Coulter, Brea, CA, USA) within 1 h after staining. Data were analyzed using Kaluza v 1.2 (Beckman Coulter).

MCF-7 cells [4] = assay: Apoptosis detection, annexin V-FITC/PI flow cytometry; format: cell-based, human
Procedure: as §3, §4, §5

Bax = Bax level in MCF-7 cells; format: cell-based, human; settings: MCF-7, 3.91 μM, 24 h
Excerpt: (§6) The extrinsic pathway, which is controlled by the death receptor, and the intrinsic pathway, which is handled by the mitochondria, are the two primary mechanisms that govern the cell during apoptosis. The two proteins Bcl-2 and Bax can alter this planned process due to their respective roles as […] (inducer), and the balance between them adjusts cell death. A further vital component that either causes cell death or prevents cell proliferation is the tumor suppressor gene, p53. […] Furthermore, compound 6b increased the amount of p53 protein in MCF-7 treated cells by 7.2 times, while control cells only had 119.65 Pg/mL (Table 3).
(§7) For the promising quinazolinone-furan-benzo[b][1,4]diazepine 6b, the Bax, Bcl-2, and p53 levels in MCF-7 cells were elucidated using the previously disclosed method.
The magnitudes of the apoptotic proteins; BAX and Bcl-2 were evaluated using BIORAD iScript TM One-Step RT-PCR kit with SYBR®Green (BIO-RAD Laboratories, Hercules, CA, US). The method of the applied kit was conducted according to the manufacturer’s protocol and previously reported method. First, mRNA isolation is done using RNeasy extraction kit, up to 1 × 10^7 cells, depending on the cell line. Then Cells were exposed to RNeasy Lysis Buffer (RLT buffer) and homogenized, while ethanol was then supplemented to the mixture to allow selective binding of RNA to the RNeasy membrane. Afterwards, the sample was loaded to the RNeasy mini spin column where total RNA was bound to the membrane while contaminants competently passed through, and high-quality RNA was eluted in RNase-free water. Then, the reaction mixture was incubated in a real-time thermal detection system (Rotorgene) as follows: cDNA synthesis: 10 min at 50 ◦C, iScript reverse transcriptase inactivation: 5 min at 95 ◦C, polymerase chain reaction (PCR) cycling and detection (30–45 cycles): 10s at 95 ^◦C and 30 s at 55 ^◦C to 60 ^◦C (data collection step) and melt curve analysis: 1 min at 95 ◦C and 1 min at 55 ^◦C and 10s at 55 ^◦C (80 cycles, increasing each by 0.5 ^◦C each cycle).

Bcl-2 = Bcl-2 level in MCF-7 cells; format: cell-based, human; settings: MCF-7, 3.91 μM, 24 h
Excerpt: as §6, §7
The magnitudes of the apoptotic proteins; BAX and Bcl-2 were evaluated using BIORAD iScript TM One-Step RT-PCR kit with SYBR®Green (BIO-RAD Laboratories, Hercules, CA, US). The method of the applied kit was conducted according to the manufacturer’s protocol and previously reported method. First, mRNA isolation is done using RNeasy extraction kit, up to 1 × 10^7 cells, depending on the cell line. Then Cells were exposed to RNeasy Lysis Buffer (RLT buffer) and homogenized, while ethanol was then supplemented to the mixture to allow selective binding of RNA to the RNeasy membrane. […]

p53 = p53 level in MCF-7 cells (ELISA); format: cell-based, human; settings: MCF-7, 3.91 μM, 24 h
Excerpt: as §6, §7
Human p53 present in MCF-7 cells was determined; using Human p53 ELISA-Kit (CS0070 Sigma) read using spectrophotometer at 450 nm against untreated control cells (negative control) applying the standard protocols of the manufacturers. The samples or standard having human p53 bind to antibodies adsorbed to the microwells. Addition of biotin-conjugated was followed by incubation and addition of dispense of unbound biotin-conjugated streptavidin HRP. Then, the reaction was terminated by adding acid, and the absorbance was measured at 450 nm.

`Cc1occ(Sc2nc3ccccc3c(=O)n2-c2ccccc2)c1C1CC(c2ccco2)Nc2ccccc2N1` (centres unmarked) [Compound 6b, 2-((4-(4-(Furan-2-yl)-2,3,4,5-tetrahydro-1H-benzo[b][1,4]diazepin-2-yl)-5-methylfuran-3-yl)thio)-3-phenylquinazolin-4(3H)-one] gave an IC50 (HepG-2 cells) of 5.8 ± 0.4 µM, an IC50 (HCT-116 cells) of 7.97 ± 0.5 µM and an IC50 (MCF-7 cells [1]) of 3.91 ± 0.2 µM. The IC50 (WI-38 cells) was 41.3 ± 2.5 µM, the “cytotoxic activity in words (SAR study)” value [2] was “Excellent activity” and the “selectivity EGFR over VEGFR-2” value (EGFR; EGFR versus VEGFR-2) was “substantially more selective for EGFR than VEGFR-2”. The IC50 (EGFR; EGFR, read-out: IC50 (mean ± SD)) was 0.19 ± 0.03 µM, the IC50 (VEGFR-2) was 31.6 ± 1.48 µM and the “%G0-G1” value (MCF-7 cells [3]) was 46.68%. For the same compound, the “%G2/M” value (MCF-7 cells [3]) was 35.29%, the “%S” value (MCF-7 cells [3]) was 18.03% and the “Apoptosis Early” value (MCF-7 cells [4]; MCF-7, 3.91 μM, 24 h) was 8.92%. The “Apoptosis Late” value (MCF-7 cells [4]; MCF-7, 3.91 μM, 24 h) was 15.39%, the “Apoptosis Total” value (MCF-7 cells [4]; MCF-7, 3.91 μM, 24 h) was 29.76 and the Necrosis (MCF-7 cells [4]; MCF-7, 3.91 μM, 24 h) was 5.45%. The “apoptosis in MCF-7 cells as stated in abstract and conclusion” value (MCF-7 cells [4]; MCF-7, flow cytometry) was 35.29%, the Bax (Bax) was 241.60 pg/mL and 241.6 ± 1.33 pg/mL and the Bax/Bcl-2 (Bax) was 85.67. For the same compound, the “rise in Bax levels versus untreated control” value (Bax) was 6.3 fold, the Bcl-2 (Bcl-2) was 2.82 ng/mL and 2.82 ± 0.11 ng/mL and the “Bcl-2 protein downregulated versus control” value (Bcl-2) was 2.6 times. For the same compound, the P53 (p53) was 860.55 ± 2.47 pg/mL and the “increase of p53 protein versus control” value (p53) was 7.2 times.
